From US20220363665A1, “QUINOLINE COMPOUNDS FOR THE TREATMENT OF AUTOIMMUNE DISEASE” (Hoffmann-La Roche Inc., priority 2019, published 2022)

Biological target: T1, human TLR7 (Homo sapiens, UniProt Q9NYK1)
T1 construct: host or cells: HEK293 (HEK-Blue hTLR7)
T1 sequence (Q9NYK1 27-1049): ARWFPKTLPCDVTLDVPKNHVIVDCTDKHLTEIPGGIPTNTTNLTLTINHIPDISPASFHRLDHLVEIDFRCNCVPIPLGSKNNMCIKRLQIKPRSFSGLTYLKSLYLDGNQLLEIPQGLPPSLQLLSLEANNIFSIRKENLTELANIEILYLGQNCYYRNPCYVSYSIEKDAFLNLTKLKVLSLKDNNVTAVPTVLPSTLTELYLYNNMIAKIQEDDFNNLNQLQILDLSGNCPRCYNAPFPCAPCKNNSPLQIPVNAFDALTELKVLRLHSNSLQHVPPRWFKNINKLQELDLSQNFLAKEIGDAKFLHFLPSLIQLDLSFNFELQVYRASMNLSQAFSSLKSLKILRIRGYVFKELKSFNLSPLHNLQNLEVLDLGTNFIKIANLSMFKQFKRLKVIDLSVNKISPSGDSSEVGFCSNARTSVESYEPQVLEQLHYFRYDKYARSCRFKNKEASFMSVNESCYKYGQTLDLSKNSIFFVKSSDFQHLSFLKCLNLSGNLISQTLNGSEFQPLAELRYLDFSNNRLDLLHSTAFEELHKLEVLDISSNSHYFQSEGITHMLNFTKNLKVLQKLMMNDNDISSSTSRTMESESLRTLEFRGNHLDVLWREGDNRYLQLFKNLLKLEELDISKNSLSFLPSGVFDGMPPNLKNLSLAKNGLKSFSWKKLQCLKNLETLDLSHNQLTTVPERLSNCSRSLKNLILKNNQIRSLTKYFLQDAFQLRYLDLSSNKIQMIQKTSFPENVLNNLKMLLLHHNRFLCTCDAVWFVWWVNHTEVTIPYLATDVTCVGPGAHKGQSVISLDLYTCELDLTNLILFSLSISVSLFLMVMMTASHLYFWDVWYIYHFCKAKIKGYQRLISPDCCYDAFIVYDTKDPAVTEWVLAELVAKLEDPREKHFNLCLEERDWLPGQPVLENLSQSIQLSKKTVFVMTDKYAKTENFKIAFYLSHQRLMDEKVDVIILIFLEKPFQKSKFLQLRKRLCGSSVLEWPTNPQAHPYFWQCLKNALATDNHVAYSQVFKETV
Experiment: HEK293-Blue-hTLR-7 cells assay (SEAP reporter, R848 stimulation)
Assay type: cell-based
Conditions: HEK293-Blue-hTLR7 cells, R848, 20 hrs
Experimental: The following tests were carried out in order to determine the activity of the compounds of formula (I) in HEK293-Blue-hTLR-7/8/9 cells assay.
HEK293-Blue-hTLR-7 Cells Assay:
A stable HEK293-Blue-hTLR-7 cell line was purchased from InvivoGen (Cat. #: hkb-htlr7, San Diego, Calif. USA). These cells were originally designed for studying the stimulation of human TLR7 by monitoring the activation of NF-κB. A SEAP (secreted embryonic alkaline phosphatase) reporter gene was placed under the control of the IFN-β minimal promoter fused to five NF-κB and AP-1-binding sites. The SEAP was induced by activating NF-κB and AP-1 via stimulating HEK-Blue hTLR7 cells with TLR7 ligands. Therefore the reporter expression was declined by TLR7 antagonist under the stimulation of a ligand, such as R848 (Resiquimod), for incubation of 20 hrs. The cell culture supernatant SEAP reporter activity was determined using QUANTI-Blue™ kit (Cat. #: rep-qbl, Invivogen, San Diego, Calif., USA) at a wavelength of 640 nm, a detection medium that turns purple or blue in the presence of alkaline phosphatase.
HEK293-Blue-hTLR7 cells were incubated at a density of 250,000˜450,000 cells/mL in a volume of 170 μL in a 96-well plate in Dulbecco's Modified Eagle's medium (DMEM) containing 4.5 g/L glucose, 50 U/mL penicillin, […], […], 2 mM L-glutamine, 10% (v/v) heat-inactivated fetal bovine serum with addition of 20 μL A test compound in a serial dilution in the presence of final DMSO at 1% and 10 μL of 20 uM R848 in above DMEM, perform incubation under 37° C. in a CO2 incubator for 20 hrs. Then 20 μL of the supernatant from each well was incubated with 180 μQuanti-blue substrate solution at 37° C. for 2 hrs and the absorbance was read at 620˜655 nm using a spectrophotometer. The signalling pathway that TLR7 activation leads to downstream NF-κB activation has been widely accepted, and therefore similar reporter assay was modified for evaluating TLR7 antagonist.

C[C@@H]1CN(c2ccc(C(F)(F)F)c3ncccc23)C[C@H](C(=O)NC[C@@H]2C[C@@H](F)CN2)O1 [Example 27, (2R,6R)-N-[[(2S,4R)-4-fluoropyrrolidin-2-yl]methyl]-6-methyl-4-[8-(trifluoromethyl)-5-quinolyl]morpholine-2-carboxamide]
IC50: 60 nM
